# Laboratory results published in patent US8981066B2, “Epigenetic mechanisms related to DNA damage and aging” (Buck Institute for Research on Aging, priority 2011, dated 2015).
# Legend:
# [1] = tested on: meK172meK180 methylated form of H1.0 in hADSC cells; experiment: H1.0 meK172meK180 methylation and localisation in hADSCs upon bleomycin genotoxic stress (immunostaining, Western blot); assay type: cell-based, human; details: for nuclear meK172meK180 H1 methylation (initial DNA damage response): hADSC, bleomycin 50 μg/ml
# Protocol: FIGS. 4A-4C illustrate the dynamics of the meK172meK180 methylation of hi stone H1.0 upon genotoxic stress-induced senescence of human adult stem (hADSC). FIG. 4A: Cells we treated with 50 μg/ml bleomycin for 3 hrs. Drug was replaced with normal DMEM12 media and cells were assessed for ^meK172^meK180 histone H1 methylation and DNA damage γH2AX at different time points (panels A, B, and C) by immunohistochemistry. Cellular senescence was estimated by senescence-associated β-Gal activity (phase-contrast). […] 1, 2, 3—represent samples of three independent hADSCs cultures used in western blot and qPCR experiments.
# Cellular senescence is believed to be associated with accumulation of persistent DNA damage and activation of DNA damage response (DDR) pathways. In the DDR pathway, some chromatin modifications seem to play a critical role in marking lesions or recruiting factors involved in repair, thus facilitating the function of repair proteins. The best characterized in this context are histone H2AX and H1 phosphorylation events.
# [2] = tested on: H1.0 gene; experiment: H1.0 gene expression in hADSCs (qPCR); assay type: cell-based, human; details: bleomycin-treated hADSCs
# Protocol: FIGS. 4A-4C illustrate the dynamics of the meK172meK180 methylation of hi stone H1.0 upon genotoxic stress-induced senescence of human adult stem (hADSC). FIG. 4A: Cells we treated with 50 μg/ml bleomycin for 3 hrs. Drug was replaced with normal DMEM12 media and cells were assessed for ^meK172^meK180 histone H1 methylation and DNA damage γH2AX at different time points (panels A, B, and C) by immunohistochemistry. Cellular senescence was estimated by senescence-associated β-Gal activity (phase-contrast). FIGS. 4B and 4C show the results of Western blots using H1.0 methyl antibodies in crude cellular extracts from human ADSCs treated with Rapamycin (FIG. 4B) or rampamyucin and bleomycin (FIG. 4C). […] However, acute DDR results in transcriptional up regulation of H1.0 gene expression that could be influenced by TOR pathway suppression. 1, 2, 3—represent samples of three independent hADSCs cultures used in western blot and qPCR experiments.
# Cellular senescence is believed to be associated with accumulation of persistent DNA damage (Sedelnikova et al. (2008) Aging Cell 7: 89-100; Rodier et al. (2009) Nat. Cell Biol., 11: 973-979) and activation of DNA damage response (DDR) pathways (Wang et al. (2011) Cell Cycle 10: 3016-3030; Sedelnikova et al. (2004) Nat. Cell Biol., 6: 168-170; Herbig et al. (2004) Molecular Cell, 14: 501-513; d'Adda et al. (2003) Nature 426: 194-198). […]
substance,measurement,setting,value
bleomycin,localisation of met H1.0 upon genotoxic-stress induced senescence,[1]; bleomycin-treated hADSCs,eviction of met H1.0 into the cytoplasm
same,nuclear meK172meK180 H1 methylation (initial DNA damage response),[1],triggers
same,nuclear meK172meK180 H1 methylation (initial DNA damage response),[1]; listed as bleomycine,rapid and robust nuclear H1.0 methylation
same,H1.0 transcription upon acute DNA damage,[2],drastic increase
